Numbers after ± are expanded uncertainties.
Details: 298.15 K; 101.33 kPa; Liquid; Vibrating tube method

SMILES | mass density [kg/m3]
CCCCCCCCC [nonane] | 713.99 ± 0.32
CCCCCCCC [octane] | 698.6 ± 0.23
Cc1ccccc1 [toluene] | 862.17 ± 0.11
CCCCn1cc[n+](C)c1.COS(=O)(=O)[O-] [1-butyl-3-methylimidazolium methyl sulfate] | 1212.59 ± 4
c1ccccc1 [benzene] | 873.57 ± 0.11
C1CCCCCCC1 [cyclooctane] | 831.47 ± 0.3
CCCC[n+]1ccn(C)c1.O=S(=O)([N-]S(=O)(=O)C(F)(F)F)C(F)(F)F | 1436.35 ± 4

Source: the NIST ThermoML archive (doi:10.1016/j.jct.2013.07.011)
